Data as given in US20020128434A1, “Alpha-(1,3-dicarbonylenol ether) methyl ketones as cysteine protease inhibitors” (priority 1993, published 2002).
Converted amounts (≈) assume the structure as drawn. Where a name gives a salt, the structure may show the parent alone. Blank lines part the entries; values can stand above or below the molecule they belong to.

Columns and labels:
[1] = system: calpain (Calcium Activated Neutral Protease); assay: Calpain inhibition; type: biochemical; settings: incubated 30 minutes at 37° C.; tested at 20 μM, 2 μM, 200 nM
Method: The percent inhibition of one inhibitor, Acetyl-Leucyl-Leucyl-Phenylalanyl-α-(4-oxy-dihydrofuran-2-one) methyl ketone, on calpain (Calcium Activated Neutral Protease) was determined as follows. A 50 mM Hepes, 10 mM calcium chloride, 5 mM cysteine, 1 mM β-mercaptoethanol, pH 7.5 buffer solution was prepared. The enzyme was activated for 1 minute in the buffer solution at room temperature. Inhibitor was prepared as stock solution in dimethylformamide. Inhibitor and enzyme/buffer were incubated for 30 minutes at 37° C. Final concentrations of inhibitor were 20 μM, 2 μM, and 200 nM. Enzyme activity was followed with 200 μM Boc-Valnyl-Leucyl-Lysine-AFC substrate by the release of free fluorescent detecting group over minutes at 37° C., as compared to the control.

physchem = settings: 20 °C, water, thermodynamic from solid
[2] = target: T1, Cathepsin B, purified from human liver (Homo sapiens, UniProt P07858); assay: In vitro evaluation of inhibitors with purified cathepsin B; type: biochemical; settings: purified cathepsin B; read-out: IC50 Cat B
T1 construct: Cathepsin B, purified from human liver; purchased Enzyme Systems Products (Dublin, Calif.); host or cells: human liver (tissue-purified)
Method: Enzyme: Cathepsin B, purified from human liver, is from Enzyme Systems Products (Dublin, Calif.). The activity is 50 mU per ml at 30° C., in 52 mM sodium phosphate, pH 6.2, 31 mM DTT, 2.1 mM EDTA, with 0.2 mM Z—Arg—Arg-7-amino-4-trifluoromethyl-coumarin as a substrate. Specific activity is 8330 mU per mg protein. (1 mU=1 nmol per min.)
Substrate Boc—Leu—Arg—Arg-7-amino-4-trifluoromethyl-coumarin-2HBr is from Enzyme Systems Products (Dublin, Calif.) and is known to be a specific substrate for cathepsin B. A 20 mM solution is made in DMF and stored at […].
Candidate inhibitors are dissolved in DMF and diluted to 20 mM and stored at […]. Dilutions are made in assay buffer.
The percent inhibition and the inhibitor concentration at which the enzyme is 50% inhibited (IC50) are determined as follows. Five μl of assay buffer (50 mM potassium phosphate pH 6.2, 2 mM EDTA, 5 mM DTT) on ice for 30 min. The inhibition is initiated by the addition of […] inhibitor each to the 480 μl aliquots. The 485 μl aliquot with enzyme is used as a control and thus receives no inhibitor. The enzyme/inhibitor mixtures are incubated 10 min. on ice and assayed for cathepsin B activity as follows:
Cathepsin B assay: To 490 μl of pre-incubated inhibitor/enzyme mixtures in assay buffer in 0.5 ml cuvette at 37° is added 10 μl of the substrate. Final inhibitor concentrations become 2000 nM, 200 nM, and 20 nM for the 200 μM, 20 μM and 2 μM stock concentrations, respectively. Activity is followed by release of free AFC over 5 min. The change in fluorescence is (fluorescence units at t=6)−(fluorescence units at t=1) with a Perkin-Elmer LS-5B spectrofluorometer (ex=400 nm, em=505 nm). The percent inhibition is determined by comparing the change in fluorescence units of the three sample concentrations of inhibited enzyme to the change in fluorescence units of the control enzyme. The percent inhibition is calculated as:
100−(fl. units of sample/fl. units of control×100).
The IC50 is ascertained by plotting percent inhibition vs. inhibitor concentration on the log scale. The IC50 is the concentration of the inhibitor (nM) at which the enzyme is inhibited by 50%.

malarial inhibition = assay: Another test of malarial inhibition
Cathepsin H = target: T2, Cathepsin H (Homo sapiens, UniProt P09668); assay: Cathepsin H inhibition; type: biochemical
T2 sequence (P09668 98-335): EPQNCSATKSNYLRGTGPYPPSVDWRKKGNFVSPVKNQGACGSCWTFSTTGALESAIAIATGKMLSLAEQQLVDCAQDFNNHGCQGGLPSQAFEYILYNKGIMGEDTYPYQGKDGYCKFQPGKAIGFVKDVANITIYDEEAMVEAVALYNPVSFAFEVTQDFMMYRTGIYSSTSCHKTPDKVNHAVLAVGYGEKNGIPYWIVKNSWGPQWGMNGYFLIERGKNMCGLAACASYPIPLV

Structure (SMILES): CC(=O)N[C@@H](CC(C)C)C(=O)N[C@@H](CC(C)C)C(=O)N[C@@H](Cc1ccccc1)C(=O)COC1=CC(=O)OC1 [Acetyl-Leucyl-Leucyl-Phenylalanyl-α-(4-oxy-dihydrofuran-2-one) methyl ketone]
concentration at which inhibitor showed activity against calpain [1]: less than 2 μM

Structure (SMILES): CCC1OC(=O)C(OCC(=O)[C@H](CCc2ccccc2)NC(=O)[C@H](Cc2ccccc2)NC(=O)N2CCOCC2)=C1C (stereo partly drawn) [Compound A2, N-Morpholinecarbonyl-L-phenylalanyl-L-homophenylalanyl-α-(3-oxy-5-ethyl-4-methyl 2(5H)furanone) methyl ketone]
malarial inhibition (malarial inhibition): particularly effective

More lines, now with the values ahead:

solubility (physchem): 277 µg/mL (≈ 517 µM)
IC50 [2]: 10 nM
Structure (SMILES): O=C1C=C(OCC(=O)[C@H](CCc2ccccc2)NC(=O)[C@H](Cc2ccccc2)NC(=O)N2CCOCC2)CO1 [Compound 12, N-Morpholinecarbonyl-L-phenylalanyl-L-homophenylalanyl-α-(4-oxy-dihydrofuran-2-one) methyl ketone]

IC50 (Cathepsin H): 251 nM
Structure (SMILES): N[C@@H](CCc1ccccc1)C(=O)COC1=CC(=O)OC1 [L-Homophenyl-α-(4-oxy-dihydrofuran-2-one)methyl ketone hydrochloride]

IC50 (Cathepsin H): 118 nM
Structure (SMILES): Cc1cc(OCC(=O)[C@@H](N)CCc2ccccc2)cc(=O)o1 [L-Homophenylalanyl-α-(4-oxy-(6-methyl-2-pyrone)methyl ketone]
